Marks after values point to notes of the source that are not given here.
How the values were obtained:
F2-isoprostane = experiment: Plasma F2-isoprostane (F2I) in exercising sled dogs; format: in vivo, dog; conditions: for Plasma F2I compared to the placebo group: in words
Method: (§1) Three groups of twelve dogs (mixed breed Alaskan sled dogs (husky pointer crosses)) were fed commercially available Pro Plan® Performance chicken and rice formula dog food as a basal diet, and each group was fed either: a placebo consisting of about 0.5 g maltodextrin, about 2 mg astaxanthin, or about 400 mg Vitamin E (alpha-tocopherol). Pro Plan® dog food is available from Nestlé Purina Pet Care Company in St. Louis, Mo. The dogs were trained three times a week on an exercise wheel for a period of six weeks. On the sixth week, the dogs rested for four days and then exercised three days in a row. Blood samples were collected before exercise on day one, immediately after exercise on day three, and at 24 hours and 48 hours after exercise. Plasma from the blood samples was analyzed for concentrations of malondialdehyde, F-2 isoprostanes, Vitamin E, creatine kinase activity as well as oxygen radical absorption capacity (ORAC).
(§2) All the dogs were maintained on the same basal diet (Purina Pro Plan® Performance chicken and rice formula) for one month prior to the onset and the entire duration of the experiment. Each dog was fed as an individual to maintain an optimal body condition score of 4/10.
(§3) Thirty-six sled dogs were housed at the Nestle Purina facility in Salcha, Ak. The dogs were divided into three groups of 12 dogs so that each group was alike in age, sex and ability distribution. A treatment was randomly assigned to each group by drawing from a hat. Group “A” was assigned about 400 mg Vitamin E/day, group “B” was assigned about 2 mg Astaxanthin/day and group “C” was assigned about 500 mg maltodextrin as a placebo. The people responsible for feeding, care, and training of the dogs were blind as to the identity of treatments until the completion of the study. Dogs were treated for six weeks before the onset of testing. They were also trained lightly for two sessions per week during this time period. Training sessions consisted of walking at 14 kilometers per hour for 2 hours in a 40-foot diameter circle tethered to a dog-walking wheel.
(§4) The testing took place over a six day period. On day one, pre-exercise blood samples were drawn from all the dogs. On day two, the dogs ran twelve km while pulling an all terrain vehicle (ATV) weighing 500 pounds. On day three, the dogs walked 16 miles on the dog wheel. On day four, the dogs again pulled the ATV for a distance of 12 kilometers. Immediately after exercise on day four, blood samples were drawn. Additional blood samples were drawn again at 24 hours and 48 hours after exercise. This sampling schedule was designed to examine changes in the parameters measured during exercise and during recovery. Samples were obtained by jugular venipuncture and collected into evacuated glass tubes containing sodium EDTA as an anticoagulant. Once collected they were kept on ice for not more than 10 minutes before they were centrifuged at 10,000 revolutions per minute (RPM) in 4° C. for a period of 10 minutes. The plasma was transferred into freezer vials where the dead space was replaced with gaseous nitrogen to decrease further oxidation during storage. The vials were then capped and immediately quenched in liquid nitrogen. The vials were recovered from liquid nitrogen and stored at −70° C. until analyzed. Each plasma sample was analyzed for malondialdehyde concentration using a standard HPLC, F2-isoprostane concentration utilizing a mass spectrometer and standard ELISA, Vitamin E concentration utilizing a standard HPLC, and Oxidative Radical Absorbance Capacity (ORAC test kit, Oxford Co.
(§5) F2 isoprostane and CK data was evaluated using a two way ANOVA for repeated measures. Post hoc comparisons were made using a student's t test corrected for repeated measures by the Bonneferroni method. Statistical significance was set at p<0.05. The other data was also evaluated using ANOVA. The abbreviation “se” used with respect to the data in the tables below refers to standard error.

[1] = reported; in words; cited from earlier work
[2] = tested on: natural killer (NK) cells; experiment: NK cell cytotoxicity of cells from animals fed astaxanthin; format: in vivo, dog; conditions: animals fed a diet containing astaxanthin vs control animals
Method: (§6) To assess the effect of astaxanthin supplementation on immune function, dogs may be fed a diet containing astaxanthin and/or Vitamin E for 16 weeks. The amount of astaxanthin used may be 0, 1, 5, 10, 20, and 40 mg per animal per day. Various assays may be performed to assess immune function.
In another assay, natural killer (NK) cell cytotoxicity is assessed for NK cells isolated from animals that are fed a diet including astaxanthin supplementation.

[3] = in words; cited from earlier work
Creatine Kinase = experiment: Plasma creatine kinase (CK) in exercising sled dogs; format: in vivo, dog
Method: as §1, §2, §3
as §4, with “The plasma was transferred into freezer vials where the dead space was replaced with gaseous nitrogen to decrease further oxidation during storage. The vials were then capped and immediately quenched in liquid nitrogen.” left out
F2 isoprostane and CK data was evaluated using a two way ANOVA for repeated measures. […] The other data was also evaluated using ANOVA. […]

cataract formation = experiment: In vivo cataract formation study, slit-lamp test; design: species or system dog; conditions: dogs, e.g. two year study; astaxanthin optionally with Vitamin E, lutein, zeaxanthin, zinc
From the text: In a model study, 40 dogs could be chosen and randomly allocated to either the control group or to a treatment group receiving AAFCO recommended levels of antioxidants. The treatment group would receive astaxanthin and may also receive one or more of Vitamin E, lutein, zeaxanthin and zinc.

total ORAC = experiment: Plasma total Oxidative Radical Absorptive Capacity (ORAC) in exercising sled dogs; format: in vivo, dog; conditions: for ORAC improvement by supplementation: any of the time periods measured, in words
Method: as §1, §2, §3, §4, §5

[4] = tested on: canine lens epithelial cells; experiment: UV-stressed canine lens epithelial cells supplemented with astaxanthin; format: cell-based
From the text: An in vitro experiment may be performed using canine lens epithelial cells supplemented with astaxanthin at physiological levels.

[5] = Delayed-type hypersensitivity skin reactions; format: in vivo, dog; conditions: animals fed a diet containing astaxanthin vs control animals
Method: as §6
Delayed-type hypersensitivity may also be assessed in animals given a diet supplemented with astaxanthin. In these assays, control animals and animals fed a diet containing astaxanthin are given cutaneous injections of saline, a mitogen or a vaccine of distemper virus. The animals are then assessed to measure the skin reactions to mitogen, virus and control. In animals fed a diet containing astaxanthin, the skin reactions are more robust for virus and mitogen than that found in control animals.

[6] = cited from earlier work
[7] = Antibody titers against an antigen; format: in vivo, dog; conditions: animals fed a diet containing astaxanthin vs control animals
Method: as §6
Control animals and animals fed a diet containing astaxanthin may also be assessed for the robustness of the immune response against an antigen. For example, antibody titers against an antigen may be measured for control animals and animals fed a diet containing astaxanthin.

malondialdehyde = experiment: Plasma malondialdehyde (MDA) in exercising sled dogs; format: in vivo, dog
Method: as §1, §2, §3, §4, §5

osteoarthritis = experiment: Osteoarthritis diet study: plasma and synovial fluid markers, gait; format: in vivo, dog
From the text: A diet supplemented with astaxanthin may be shown to reduce inflammation and associated pain in osteoarthritis. […] At 12 weeks of treatment, plasma and synovial fluid samples are taken from each animal and assayed for total antioxidant activity, and levels of malionaldehyde, prostaglandin, isoprostanes, MMPs and TIMPs. Additionally, the gait of the dogs may be assessed using standard force plate analyses.

[8] = tested on: peripheral blood mononuclear cells (PBMCs); experiment: In vitro lymphoproliferation of stimulated PBMC; format: cell-based, dog; conditions: astaxanthin added directly to the media during stimulation
[9] = Plasma Vitamin E in exercising sled dogs
Method: as §1, §2, §3, §4, §5

[10] = Pre-ex, sled dogs, about 2 mg astaxanthin/day or about 400 mg Vitamin E/day for six weeks

CC1=C(/C=C/C(C)=C/C=C/C(C)=C/C=C/C=C(C)/C=C/C=C(C)/C=C/C2=C(C)C(=O)[C@@H](O)CC2(C)C)C(C)(C)C[C@H](O)C1=O [ATX, astaxanthin]
Plasma F2 Isoprostane concentration (mean) (F2-isoprostane; 24 hour post, same treatment): 90 | Plasma F2 Isoprostane concentration (mean) (F2-isoprostane; 48 hour post, same treatment): 66 | Plasma F2 Isoprostane concentration (mean) (F2-isoprostane; Post-ex, same treatment): 52 | Plasma F2I compared to the placebo group (F2-isoprostane): lower F2I values immediately post-exercise and at 24 hours post-exercise | potency in preventing lipid peroxidation and scavenging free radicals [1]: more potent than Vitamin E or Vitamin C | NK cytotoxicity [2]: significantly increased | solubility (lipid / water compartments of the cell) [3]: soluble in both lipid and water compartments of the cell | Plasma CK compared to the Vitamin E group (Creatine Kinase; all time periods but 24 hours post-exercise, in words): lower CK values than the Vitamin E group | cataract formation and severity (slit-lamp test) (cataract formation): control group has significantly more cataract formation | Plasma total ORAC (mean) (total ORAC; 24 hour post, same treatment): 5700 | Plasma total ORAC (mean) (total ORAC; 48 hour post, same treatment): 4800 | ORAC improvement by supplementation (total ORAC): not improved | free radical formation and lipid peroxidation products ([4]; canine lens epithelia stressed with UV light, astaxanthin at physiological levels): significantly reduce | cell death ([4]; canine lens epithelial cells stressed with UV light): significantly less cell death | skin reactions to virus and mitogen (delayed-type hypersensitivity) [5]: more robust | in vitro oxygen radical absorptive capacity relative to Vitamin E [6]: 4 times | antibody titers against an antigen [7]: higher antibody titers | Plasma MDA (mean) (malondialdehyde; 24 hour post, same treatment): 0.95 | Plasma MDA compared between treatment groups (malondialdehyde; 24 hours post exercise, in words): lower than either the placebo value or the Vitamin E value | Change in Plasma MDA from Baseline (malondialdehyde; Pre to 48 hour Post): −0.004 | gait (force plate analyses) (osteoarthritis; 12 weeks, compared to controls): significant improvement in gait | isoprostanes, total antioxidant activity and MMPs (osteoarthritis; plasma and synovial fluid, 12 weeks, 1, 5, 10, 20, or 40 mg per animal per day): decrease | proliferation of PBMC [8]: increases proliferation of cells significantly more | Plasma Vitamin E concentration compared between treatment groups ([9]; dog, in vivo): no significant difference

Cc1c(C)c2c(c(C)c1O)CC[C@@](C)(CCC[C@H](C)CCC[C@H](C)CCCC(C)C)O2 [Vitamin E, alpha-tocopherol]
Plasma F2 Isoprostane concentration (mean) (F2-isoprostane; 24 hour post, same treatment): 130 | Plasma F2 Isoprostane concentration (mean) (F2-isoprostane; 48 hour post, same treatment): 78 | Plasma F2 Isoprostane concentration (mean) (F2-isoprostane; Post-ex, same treatment): 223 | Plasma F2 Isoprostane concentration (mean) (F2-isoprostane; [10]): 144 | Plasma F2I compared to the placebo group (F2-isoprostane): not different from the placebo value except at the 24 hour post-exercise time period where it was lower | solubility (lipid / water compartments of the cell) [3]: lipid soluble only | Plasma Creatine Kinase (mean) (Creatine Kinase; 24 hour post, same treatment): 184 | Plasma Creatine Kinase (mean) (Creatine Kinase; 48 hour post, same treatment): 204 | Plasma Creatine Kinase (mean) (Creatine Kinase; Post-ex, same treatment): 208 | Plasma Creatine Kinase (mean) (Creatine Kinase; [10]): 139 | Plasma total ORAC (mean) (total ORAC; 24 hour post, same treatment): 7590 | Plasma total ORAC (mean) (total ORAC; 48 hour post, same treatment): 4840 | Plasma total ORAC (mean) (total ORAC; Post-ex, same treatment): 5850 | Plasma total ORAC (mean) (total ORAC; [10]): 7480 | ORAC improvement by supplementation (total ORAC): not improved | Plasma MDA (mean) (malondialdehyde; 24 hour post, same treatment): 1.44 | Plasma MDA (mean) (malondialdehyde; 48 hour post, same treatment): 1.44 | Plasma MDA (mean) (malondialdehyde; Post-ex, same treatment): 1.17 | Change in Plasma MDA from Baseline (malondialdehyde; Pre to 24 hour post): −0.071 | Change in Plasma MDA from Baseline (malondialdehyde; Pre to 48 hour Post): −0.069 | Change in Plasma MDA from Baseline (malondialdehyde; Pre to Post): −0.336* | Plasma MDA (mean) (malondialdehyde; [10]): 1.51 | Plasma Vitamin E (mean) ([9]; 24 hour post, same treatment): 4720 | Plasma Vitamin E (mean) ([9]; 48 hour post, same treatment): 4520 | Plasma Vitamin E (mean) ([9]; Post-ex, same treatment): 3540 | Plasma Vitamin E (mean) [9, 10]: 3370 | Plasma Vitamin E concentration compared between treatment groups ([9]; all time periods, in words): greatest

— US8034373B2, “Methods and compositions for reducing oxidative stress in an animal” (Nestec S. A., priority 2004, dated 2011)
